For series [1], the system named is Leishmania donovani. The experiment in a line: Antileishmanial activity against Leishmania donovani HU3 infected in po dosed BALB/c mouse administered for 5 consecutive days. The class given is functional.
Series [2] has as its system Mycobacterium tuberculosis. The experiment in a line: Antimycobacterial activity against Mycobacterium tuberculosis. The class given is functional.
In series [3] the test system is Leishmania donovani. The experiment in a line: Antileishmanial activity against Leishmania donovani LV9 amastigotes infected in BALB/c mouse peritoneal macrophages after 72 hrs by resazurin-based fluorescence assay. Type of series: functional. Particulars: LV9, 72 h.
The subject of series [4] is Leishmania donovani. The experiment in a line: Antileishmanial activity against Leishmania donovani LV9 promastigotes after 72 hrs by resazurin-based fluorescence assay. The note with it: LV9, 72 h. The class given is functional. For orientation: The colour change of resazurin is a common sign of viable cells or microbes.
The subject of series [5] is Trypanosoma cruzi. Briefly: Antiparasitic activity against Trypanosoma cruzi infected in human assessed as cure rate under chronic condition. Type of series: functional.
Series [6] has as its system Trypanosoma cruzi. Briefly: Antiparasitic activity against Trypanosoma cruzi infected in human assessed as cure rate under acute condition. The class given is functional.
In series [7] the test system is Leishmania donovani. The experiment in a line: Antileishmanial activity against Leishmania donovani LV9 amastigotes infected in po dosed BALB/c mouse assessed as reduction in parasite burden dosed on day 7 post-infection administered bid for 5 to 10 days. The class given is functional.
Series [8] relates to Leishmania donovani. The experiment in a line: Antileishmanial activity against Leishmania donovani LV9 amastigotes infected in mouse peritoneal macrophages after 72 hrs. The note with it: LV9, 72 h. Type of series: functional.
The subject of series [9] is Leishmania donovani. Briefly: Antileishmanial activity against Leishmania donovani LV9 amastigotes infected in BALB/c mouse assessed as reduction in parasite burden at 200 mg/kg, po administered qd for 5 days. The class given is functional. The note with it: 120 h.
The test system of a further series is Entamoeba histolytica. Briefly: Antiparasitic activity against Entamoeba histolytica clinical isolate after 24 hrs under anaerobic cinditions. Type of series: functional.
The subject of series [10] is Giardia intestinalis. The experiment in a line: In vivo antiparasitic activity against Giardia lamblia infected in human at 2000 to 2400 mg administered as single dose. Type of series: functional, Giardia duodenalis.
Series [11] relates to Trichomonas vaginalis. The experiment in a line: Antiparasitic activity against Trichomonas vaginalis BRIS/92/STDL/B7268 clinical isolate after 48 hrs under anaerobic condition. Type of series: functional.
Series [12] relates to Helicobacter pylori. Briefly: Antibacterial activity against resistant Helicobacter pylori. The class given is functional.
A short description of series [13]: Drug excretion in po dosed human watery feces. Type of series: ADME, organism-based. The note with it: in vivo.
The subject of series [14] is Giardia intestinalis. The experiment in a line: In vivo antiparasitic activity against Giardia lamblia infected in human at 250 mg administered 2 to 3 times per day daily for 5 to 10 days. Type of series: functional, Giardia duodenalis.
Series [15] in a line: Drug excretion in po dosed human feces. The class given is ADME, organism-based. Particulars: in vivo.
The test system of series [16] is Helicobacter pylori. Briefly: Antibacterial activity against Helicobacter pylori after 72 hrs by E-test. Type of series: functional.
For series [17], the system named is Helicobacter pylori. Briefly: Antibacterial activity against susceptible Helicobacter pylori. Type of series: functional.
Series [18] deals with Trichomonas vaginalis. The experiment in a line: Antiparasitic activity against Trichomonas vaginalis clinical isolate after 48 hrs under aerobic conditions by inverted phase contrast microscopic analysis. The class given is functional.
Another series relates to Clostridioides difficile. Briefly: Antibacterial activity against Clostridium difficile. Type of series: functional.
For series [19], the system named is Giardia intestinalis. The experiment in a line: In vivo antiparasitic activity against Giardia lamblia infected in human assessed as median efficacy at 2 g administered in adults as single dose. Type of series: functional, Giardia duodenalis.
Another series concerns Bacteroides fragilis. The experiment in a line: Antibacterial activity against Bacteroides fragilis ATCC 23745 after 24 hrs. The class given is functional. Particulars: ATCC 23745, 24 h.
Series [20] relates to Giardia intestinalis. The experiment in a line: In vivo antiparasitic activity against Giardia lamblia infected in human assessed as median efficacy at 30 mg/kg administered in children as single dose. The class given is functional, Giardia duodenalis.
Series [21] concerns Helicobacter pylori. Briefly: In vivo antibacterial activity against Helicobacter pylori infected in human administered bid for 7 days measured after 30 days post start of the treatment by endoscopic analysis. Type of series: functional.
Series [22] is described as follows: Half life in plasma (unknown origin). Type of series: ADME, cell-free.

Structures are written as SMILES. pEC50: −log10 of the molar value. ≈ marks a conversion by molar mass, not a printed value.

In turn, `C[C@]1(COc2ccc(OC(F)(F)F)cc2)Cn2cc([N+](=O)[O-])nc2O1` registered an ED90 in the series with Leishmania donovani [1] of 3.7 mg/kg.

For orientation: MIC means the lowest concentration that inhibits growth of the organism. The term pEC50 denotes the EC50 on a negative log10 scale, so that one unit is a factor of ten. Higher therefore signals a low EC50. In series [2], `O=[N+]([O-])c1cn2c(n1)OC[C@H](OCc1ccc(OC(F)(F)F)cc1)C2` yielded an MIC of more than 100 µM. For the same compound, the pEC50 in the series on Leishmania donovani [3] was 6.03; in the series on Leishmania donovani [4], 6.80.

As for `O=C(Cn1ccnc1[N+](=O)[O-])NCc1ccccc1` [BENZNIDAZOLE], the Activity in the series with Trypanosoma cruzi [5] is on record as 8%; in the series on Trypanosoma cruzi [6] it was 76%.

Broadly, the ED50 is the dose that gives a 50% effect, or the effect in half of the subjects. Turning to `C[C@]1(COc2ccc(N3CCC(Oc4ccc(OC(F)(F)F)cc4)CC3)cc2)Cn2cc([N+](=O)[O-])nc2O1` [DELAMANID], in the series with Leishmania donovani [7], the ED50 worked out at 7.3 mg/kg and the ED90 stood at 21.5 mg/kg. Moreover, the pEC50 in the series with Leishmania donovani [8] is 7.06.

Turning to `Cn1c([N+](=O)[O-])cnc1COc1ccc(S(C)(=O)=O)cc1` [FEXINIDAZOLE SULFONE], in the series with Leishmania donovani [8], the pEC50 was 5.28.

In general, inhibition in vivo refers to the drop in the measured response relative to a control, in per cent. As to `CSc1ccc(OCc2ncc([N+](=O)[O-])n2C)cc1` [FEXINIDAZOLE], in the series with Leishmania donovani [9], the inhibition in vivo at 200 mg/kg is 98%.

As a reminder, the MIC90 is the lowest concentration that inhibits either 90% of growth or 90% of the strains tested, depending on the study. Low values mean greater potency, high ones weaker potency. For the compound `Cc1ncc([N+](=O)[O-])n1CCO` [METRONIDAZOLE], the MIC was 12.5 to 25 µM (≈ 2.14 to 4.28 µg/mL) in the series on Entamoeba histolytica, more than 8 µg/mL with Helicobacter pylori [12], not below 256 µg/mL with Helicobacter pylori [16] and 0.25 to 2 µg/mL (≈ 1.46 to 11.7 µM) against Helicobacter pylori [17]. For the same compound, the Efficacy is on record as 48% with Giardia intestinalis [10] and 88% with Giardia intestinalis [14]. For the same compound, the MLC in the series on Trichomonas vaginalis [11] worked out at 4.25 µg/mL (≈ 24.8 µM); in the series with Trichomonas vaginalis [18] it was 2618 µM (≈ 448 µg/mL). Besides, the values for the Drug excretion in series [13] and in [15] were 9.3 µg/g and 1.2 µg/g, respectively. For the same compound, the MIC90 against Clostridioides difficile was in the range of 0.2 to 2 µg/mL (≈ 1.17 to 11.7 µM).

In the case of `CCCCCCCCCCCCCCCCOP(=O)([O-])OCC[N+](C)(C)C` [MILTEFOSINE], the negative-log EC50 (pEC50) in the series with Leishmania donovani [8] was 5.48.

With `Cc1ncc([N+](=O)[O-])n1CC(O)CCl` (centres undefined) [ORNIDAZOLE], in the series with Giardia intestinalis [19], the Efficacy was 92 - 100%. In addition, the MIC in the series on Bacteroides fragilis was 0.8 to 3.7 µM (≈ 0.176 to 0.813 µg/mL).

In turn, `Cc1ncc([N+](=O)[O-])n1CCc1ccncc1` [PANIDAZOLE] yielded an MIC with Bacteroides fragilis of 0.8 to 3.7 µM (≈ 0.186 to 0.859 µg/mL).

With `Cc1ncc([N+](=O)[O-])n1CC(C)O` (centres undefined) [SECNIDAZOLE], the Efficacy with Giardia intestinalis [19] and in the series on Giardia intestinalis [20] was 80 - 100% each time. In addition, the MIC with Bacteroides fragilis was 0.8 to 3.7 µM (≈ 0.148 to 0.685 µg/mL).

Broadly, the half-life is the time in which the quantity being followed falls by half. Lower therefore signals fast loss. `CCS(=O)(=O)CCn1c([N+](=O)[O-])cnc1C` [TINIDAZOLE]: the Efficacy in the series on Giardia intestinalis [19] worked out at 92%. Also, in the series with Helicobacter pylori [21], the Activity was more than 90%. This compound also came in with a half-life in series [22] of 12 to 14 h. This compound returned an MIC against Bacteroides fragilis of 0.8 to 3.7 µM (≈ 0.198 to 0.915 µg/mL). The same compound displayed an MLC in the series on Trichomonas vaginalis [18] of 1015 µM (≈ 251 µg/mL).

The values above are taken from ChEMBL document CHEMBL4038299, “Nitroimidazoles: Molecular Fireworks That Combat a Broad Spectrum of Infectious Diseases” (J Med Chem, 2017).
